Series [1] relates to Blumeria qraminis f. sp. tritici (Erysiphe qraminis f. sp. tritici). As to the kind of experiment: Blumeria graminis f. sp. tritici / wheat / leaf disc preventative (powdery mildew on wheat). The settings on record: foliar, wheat leaf segments cv. Kanzler, inoculated 1 day after application, assessed 6-8 days after application, read-out: inhibit fungal infestation (percent disease control compared to untreated). The class given is in vivo.

In the next series the test system is Pythium ultimum. In words: Pythium ultimum / liquid culture (seedling damping off). The settings on record: Globisporangium ultimum, liquid culture in PDB, 24° C., 2-3 days after application, read-out: inhibit fungal infestation (inhibition of growth determined photometrically). It counts as cell-based.
The test system of another series is Phytophthora infestans. As to the kind of experiment: whole plant or invertebrate. The class given is in vivo. The settings on record: in Solanum lycopersicum, foliar, read-out: inhibit fungal infestation (percent disease control compared to untreated).
For a further series, the system named is Plasmopara viticola. As to the kind of experiment: Plasmopara viticola / grape / leaf disc preventative. It counts as in vivo. The settings on record: foliar, grape vine leaf disks, inoculated 1 day after application, assessed 6-8 days after application, read-out: inhibit fungal infestation (percent disease control compared to untreated).
Series [2] relates to Phaeosphaeria nodorum (Septoria nodorum). In words: Phaeosphaeria nodorum (Septoria nodorum) / wheat / leaf disc preventative (glume blotch). It counts as in vivo. The settings on record: Parastagonospora nodorum, foliar, wheat leaf segments cv. Kanzler, inoculated 2 days after application, assessed 5-7 days after application, read-out: inhibit fungal infestation (percent disease control compared to untreated).

“And” between values parts separate entries of the source, which are not always exact repeats. Identical values can stand only once. Some results are limits rather than exact numbers.

In the case of `CSC(Oc1cc(Cl)c2ncc(Br)cc2c1)C(=O)NCc1ccno1` (stereo not drawn) [Compound 1], the melting point came out at 143 °C. Further, the inhibition at 200 ppm in series [1] was not below 80%.
For the compound `CSC(Oc1ccc2ncc(I)cc2c1)C(=O)NCc1ccno1` (stereo not drawn) [Compound 2], the melting point is 153 °C. Further, the inhibition at 200 ppm in series [1] was not below 80%. Further, the inhibition at 200 ppm in the series on Pythium ultimum was not below 80%.
`CSC(Oc1ccc2ncc(Br)cc2c1)C(=O)NCc1ccno1` (stereo not drawn) [Compound 3]: the melting point came out at 140 °C. Moreover, the inhibition at 200 ppm in series [1] is not below 80%. Besides, the inhibition at 200 ppm in the series on Pythium ultimum was not below 80%.
Consider `C#Cc1cnc2ccc(OC(SC)C(=O)NCc3ccno3)cc2c1` (stereo not drawn) [Compound 4], for which the melting point is 115 °C. The inhibition at 200 ppm in the series on Phytophthora infestans was not below 80%. The inhibition at 200 ppm in series [1] is not below 80%. For the same compound, the inhibition at 200 ppm in the series with Pythium ultimum was not below 80%.
Take `CSC(Oc1ccc2ncc(Br)cc2c1)C(=O)NCc1ccccn1` (stereo not drawn) [Compound 5]: the melting point came to 104 °C. Besides, in the series on Pythium ultimum, the inhibition at 200 ppm was not below 80%.
Turning to `CSC(Oc1ccc2ncc(I)cc2c1)C(=O)NCc1ccccn1` (stereo not drawn) [Compound 6], the melting point stood at 109 °C. Moreover, in series [1], the inhibition at 200 ppm was not below 80%. For the same compound, the inhibition at 200 ppm in the series on Pythium ultimum was not below 80%.
The compound `COC(Oc1cc(Cl)c2ncc(Br)cc2c1)C(=O)NC(C)(C)c1ccccn1` (stereo not drawn) [Compound 14] showed a melting point of 95 °C.
The compound `C#Cc1cnc2c(C)cc(OC(SC)C(=O)NC(C)(C)c3cccc(C)n3)cc2c1` (stereo not drawn) [Compound 16] returned a melting point of 123 °C. Besides, the inhibition at 200 ppm in the series on Plasmopara viticola is not below 80%. In addition, the inhibition at 200 ppm in series [1] is not below 80%. For the same compound, the inhibition at 200 ppm with Pythium ultimum was not below 80%.
The compound `C#Cc1cnc2c(C)cc(OC(SC)C(=O)NC(C)(C)c3cc(C)ccn3)cc2c1` (stereo not drawn) [Compound 17] displayed a melting point of 82 °C. In addition, the inhibition at 200 ppm in the series on Plasmopara viticola is not below 80%. For the same compound, the inhibition at 200 ppm in series [1] is not below 80%. Further, the inhibition at 200 ppm in the series on Pythium ultimum was not below 80%.
For the compound `C#Cc1cnc2ccc(OC(SC)C(=O)NC(C)(C)c3ncc(Cl)s3)cc2c1` (stereo not drawn) [Compound 19], the melting point came to 125 °C. Besides, in the series on Plasmopara viticola, the inhibition at 200 ppm was not below 80%. Moreover, in series [1], the inhibition at 200 ppm is not below 80%. Besides, the inhibition at 200 ppm in the series with Pythium ultimum is not below 80%.
`C#Cc1cnc2c(F)cc(OC(SC)C(=O)NC(C)(C)c3cc(CC)on3)cc2c1` (stereo not drawn) [Compound 21] displayed a melting point of 133 °C. For the same compound, the inhibition at 200 ppm in the series on Phytophthora infestans was not below 80%. Also, the inhibition at 200 ppm with Plasmopara viticola is not below 80%. In addition, the inhibition at 200 ppm in series [1] is not below 80%. Also, the inhibition at 200 ppm in the series with Pythium ultimum is not below 80%.
`C#Cc1cnc2c(Cl)cc(OC(SC)C(=O)NC(C)(C)c3cc(CC)on3)cc2c1` (stereo not drawn) [Compound 22] showed a melting point of 157 °C. Besides, the inhibition at 200 ppm in the series with Phytophthora infestans is not below 80%. In addition, in the series with Plasmopara viticola, the inhibition at 200 ppm was not below 80%. Besides, the inhibition at 200 ppm in series [1] was not below 80%. For the same compound, the inhibition at 200 ppm in the series on Pythium ultimum was not below 80%.
`CCc1cc(C(C)(C)NC(=O)C(Oc2ccc3ncc(I)cc3c2)SC)no1` (stereo not drawn) [Compound 23] had a melting point of 125 °C. For the same compound, the inhibition at 200 ppm in the series on Phytophthora infestans was not below 80%. Besides, the inhibition at 200 ppm with Plasmopara viticola is not below 80%. Besides, the inhibition at 200 ppm in series [1] was not below 80%. The inhibition at 200 ppm in the series with Pythium ultimum is not below 80%.
With `C#Cc1cnc2ccc(OC(SC)C(=O)NCc3ccccn3)cc2c1` (stereo not drawn) [Compound 25], the melting point stood at 133 °C. For the same compound, in the series on Phytophthora infestans, the inhibition at 200 ppm is not below 80%. Moreover, in series [1], the inhibition at 200 ppm is not below 80%. Also, the inhibition at 200 ppm with Pythium ultimum is not below 80%.
For `C#Cc1cnc2c(C)cc(OC(SC)C(=O)NC(C)(C)c3ccc(Cl)nc3)cc2c1` (stereo not drawn) [Compound 26], the melting point was 120 °C. The inhibition at 200 ppm in the series on Plasmopara viticola was not below 80%. In addition, in series [1], the inhibition at 200 ppm is not below 80%. The inhibition at 200 ppm in the series with Pythium ultimum is not below 80%.
Compound `C#Cc1cnc2ccc(OC(SC)C(=O)NC(C)(C)c3ccc(Cl)nc3)cc2c1` (stereo not drawn) [Compound 27] gave a melting point of 114 °C. Further, the inhibition at 200 ppm in the series on Pythium ultimum is not below 80%.
As to `C#Cc1cnc2ccc(OC(SC)C(=O)NC(C)(C)c3nc(C)cs3)cc2c1` (stereo not drawn) [Compound 28], the melting point was 97 to 99 °C and 97 °C. Moreover, the inhibition at 200 ppm with Phytophthora infestans was not below 80%. In the series on Plasmopara viticola, the inhibition at 200 ppm is not below 80%. The inhibition at 200 ppm in series [1] is not below 80%. Further, the inhibition at 200 ppm in the series with Pythium ultimum is not below 80%.
In turn, `C#Cc1cnc2ccc(OC(SC)C(=O)NCc3nccs3)cc2c1` (stereo not drawn) [Compound 29] displayed a melting point of 178 °C. Further, the inhibition at 200 ppm with Plasmopara viticola was not below 80%. For the same compound, the inhibition at 200 ppm in series [1] is not below 80%. Further, the inhibition at 200 ppm in the series with Pythium ultimum is not below 80%.
Regarding `C#Cc1cnc2ccc(OC(SC)C(=O)NCc3nc(C)cs3)cc2c1` (stereo not drawn) [Compound 30], the melting point is 115 °C. Besides, the inhibition at 200 ppm in the series on Phytophthora infestans was not below 80%. Also, in the series on Plasmopara viticola, the inhibition at 200 ppm is not below 80%. In series [1], the inhibition at 200 ppm was not below 80%. Besides, in the series with Pythium ultimum, the inhibition at 200 ppm is not below 80%.
Regarding `C#Cc1cnc2ccc(OC(SC)C(=O)NCc3nc(C)c(C)s3)cc2c1` (stereo not drawn) [Compound 31], the melting point stood at 126 °C. In addition, the inhibition at 200 ppm in the series on Phytophthora infestans was not below 80%. In addition, the inhibition at 200 ppm in series [1] is not below 80%. Further, in the series on Pythium ultimum, the inhibition at 200 ppm was not below 80%.
With `C#Cc1cnc2c(C)cc(OC(SC)C(=O)NC(CC)c3ccccn3)cc2c1` (stereo not drawn) [Compound 60], the inhibition at 200 ppm (in series [1]; in series [2]; with Pythium ultimum) was not below 80% in each case.
For `C#Cc1cnc2c(F)cc(OC(SC)C(=O)NC(C)(C)c3cc(COC)on3)cc2c1` (stereo not drawn) [Compound 89], the inhibition at 200 ppm (in the series with Phytophthora infestans; in the series with Plasmopara viticola; in series [1]; with Pythium ultimum) was not below 80% throughout.
Regarding `C#Cc1cnc2c(C)cc(OC(SC)C(=O)NC(C)(C)c3cc(CC)on3)cc2c1` (stereo not drawn) [Compound 94], the inhibition at 200 ppm (in the series on Phytophthora infestans; in the series on Plasmopara viticola; in series [1]; in the series with Pythium ultimum) was not below 80% throughout.
Regarding `C#Cc1cnc2c(Cl)cc(OC(SC)C(=O)NC(C)(C)c3cc(COC)on3)cc2c1` (stereo not drawn) [Compound 96], the inhibition at 200 ppm (in the series with Phytophthora infestans; with Plasmopara viticola; in series [1]; in the series on Pythium ultimum) was not below 80% throughout.
`COCc1cc(C(C)(C)NC(=O)C(Oc2ccc3ncc(I)cc3c2)SC)no1` (stereo not drawn) [Compound 105]: the inhibition at 200 ppm (in the series on Phytophthora infestans; in the series on Plasmopara viticola; in series [1]; with Pythium ultimum) was not below 80% in each case.
For the compound `CSC(Oc1ccc2ncc(I)cc2c1)C(=O)NC(C)(C)c1cc(C)on1` (stereo not drawn) [Compound 109], the inhibition at 200 ppm (in the series on Phytophthora infestans; with Plasmopara viticola; in series [1]; with Pythium ultimum) was not below 80% each time.
For the compound `CSC(Oc1ccc2ncc(I)cc2c1)C(=O)NC(C)(C)c1nocc1C` (stereo not drawn) [Compound 110], the inhibition at 200 ppm (with Phytophthora infestans; in the series on Plasmopara viticola; in series [1]; in the series on Pythium ultimum) was not below 80% in each case.
With `C#Cc1cnc2cc(F)c(OC(SC)C(=O)NC(C)(C)c3cccc(C)n3)cc2c1` (stereo not drawn) [Compound 111], the inhibition at 200 ppm (in series [1]; in series [2]; in the series on Pythium ultimum) was not below 80% each time.
Consider `C#Cc1cnc2c(Cl)cc(OC(SC)C(=O)NC(C)(C)c3cccc(C)n3)cc2c1` (stereo not drawn) [Compound 113], for which the inhibition at 200 ppm (in series [1]; in series [2]; in the series with Pythium ultimum) was not below 80% throughout.
As for `C#Cc1cnc2c(C)cc(OC(SC)C(=O)NCc3nccs3)cc2c1` (stereo not drawn) [Compound 116], the inhibition at 200 ppm (in series [2]; with Pythium ultimum) was not below 80% throughout.
`C=Cc1cnc2ccc(OC(SC)C(=O)NC(C)(C)c3ccccn3)cc2c1` (stereo not drawn) [Compound 133, N-[1-methyl-1-(2-pyridyl)ethyl]-2-methylsulfanyl-2-[(3-vinyl-6-quinolyl)oxy]acetamide] showed a melting point of 95 to 97 °C.
Consider `C=Cc1cnc2c(Cl)cc(OC(OC)C(=O)NC(C)(C)c3ccccn3)cc2c1` (stereo not drawn) [Compound 134], for which the melting point was 93 °C. Moreover, in the series with Plasmopara viticola, the inhibition at 200 ppm was not below 80%. In addition, in series [1], the inhibition at 200 ppm was not below 80%. For the same compound, the inhibition at 200 ppm in the series on Pythium ultimum is not below 80%.
`C=Cc1cnc2c(Cl)cc(OC(CC)C(=O)NC(C)(C)c3ccon3)cc2c1` (stereo not drawn) [Compound 136] had a melting point of 104 °C. Further, in series [1], the inhibition at 200 ppm was not below 80%. For the same compound, the inhibition at 200 ppm with Pythium ultimum is not below 80%.
In the case of `C=Cc1cnc2c(F)cc(OC(CC)C(=O)NC(C)(C)c3nccs3)cc2c1` (stereo not drawn) [Compound 137], the melting point was 102 °C. Besides, the inhibition at 200 ppm in the series on Phytophthora infestans is not below 80%. Also, in the series on Plasmopara viticola, the inhibition at 200 ppm is not below 80%. Besides, in series [1], the inhibition at 200 ppm is not below 80%. Besides, the inhibition at 200 ppm in the series on Pythium ultimum was not below 80%.
In the case of `C=Cc1cnc2c(F)cc(OC(OC)C(=O)NC(C)(C)c3ccon3)cc2c1` (stereo not drawn) [Compound 138], the melting point stood at 118 °C. In series [1], the inhibition at 200 ppm is not below 80%.
Take `C=Cc1cnc2c(F)cc(OC(CC)C(=O)NC(C)(C)c3cc(CC)on3)cc2c1` (stereo not drawn) [Compound 139]: the melting point worked out at 114 °C. For the same compound, in the series with Phytophthora infestans, the inhibition at 200 ppm is not below 80%. Further, the inhibition at 200 ppm with Plasmopara viticola was not below 80%. In addition, the inhibition at 200 ppm with Pythium ultimum is not below 80%.
Take `COC(Oc1cc(Cl)c2ncc(Br)cc2c1)C(=O)NC(C)(C)c1nccs1` (stereo not drawn) [Compound 140]: the melting point was found to be 111 °C. Also, the inhibition at 200 ppm in series [1] was not below 80%.

Usually melting point stands for the temperature, or range, at which the solid turns liquid.

Source of the values: patent US20140045890A1, “NOVEL COMPOUNDS” (SYNGENTA PARTICIPATIONS AG, priority 2011, published 2014).
